Reference: patent US12233032B2, “Compositions for management of polycystic ovary syndrome” (Sami-Sabinsa Group Limited, priority 2021, dated 2025)
Marks after values point to notes of the source that are not given here.

Experiments:
Type in all cases: in vivo
[1] = system: PCOS induced by letrozole in female Wistar rats; assay: Serum hormonal levels (17-β estradiol, progesterone, FSH, LH) in letrozole-induced PCOS; conditions: day 22 to day 36
Experimental: (§1) Animals and Experimental design: Animals were housed under standard air-conditioned laboratory conditions. The temperature was maintained at maximum: 24° C. and a minimum of 23° C. and Relative humidity at maximum: 63% and a minimum of 48% with 12 h light and 12 h dark cycle. The maximum and minimum temperature and relative humidity in the experimental room were recorded once daily. Female virgin Wistar rats (150-200 g) was checked daily for 4-day ovarian cycle using vaginal cytology. PCOS was induced by oral administration of aromatase inhibitor, letrozole (1 mg/kg) dissolved in 0.5% CMC (2 mg/kg) for 21 days. During the experiment, the estrous cycle was monitored by the analyses of relative proportion of leukocytes, epithelial and cornified cells in vaginal smears. Following letrozole administration, test samples were administered to animals from day 22 to day 36. After treatment protocol, animal from all groups (Table 1) were fasted overnight and anesthetized with diethylether/halothane. The blood was collected by retino-orbital puncture, then serum was separated by centrifugation followed by estimation of hormones and other biochemical parameters using commercially available ELISA kits. The serum hormone levels, body weight and ovary weigh of the animals were assessed to ascertain the effective dose.

[2] = system: PCOS induced by letrozole in female Wistar rats; assay: Body weight in letrozole-induced PCOS
Experimental: as §1

[3] = system: PCOS induced by letrozole in female Wistar rats; assay: Ovarian weight in letrozole-induced PCOS; conditions: day 22 to day 36
Experimental: as §1

[4] = system: PCOS induced by letrozole in female Wistar rats; assay: Thyroid function analysis (serum T3, T4, TSH) in PCOS
Experimental: Animals and Experimental design: Animals were housed under standard air-conditioned laboratory conditions. The temperature was maintained at maximum: 24° C. and a minimum of 23° C. and Relative humidity at maximum: 63% and a minimum of 48% with 12 h light and 12 h dark cycle. The maximum and minimum temperature and relative humidity in the experimental room were recorded once daily. Female virgin Wistar rats (150-200 g) was checked daily for 4-day ovarian cycle using vaginal cytology. PCOS was induced by oral administration of aromatase inhibitor, letrozole (1 mg/kg) dissolved in 0.5% CMC (2 mg/kg) for 21 days. During the experiment, the estrous cycle was monitored by the analyses of relative proportion of leukocytes, epithelial and cornified cells in vaginal smears.
Following letrozole administration, test samples were administered to animals from day 22 to day 36. After treatment protocol, animal from all groups (Table 1) were fasted overnight and anesthetized with diethylether/halothane. The blood was collected by retino-orbital puncture, then serum was separated by centrifugation followed by estimation of hormones and other biochemical parameters using commercially available ELISA kits.
Based on the above results, the following groups were taken for further analysis BDMC 25 mg/kg p.o. • BDMC 50 mg/kg p.o. • AC3 100 mg/kg p.o. • AC3 200 mg/kg p.o.
The following molecular targets were assessed: • 1. Thyroid Function analysis • 2. Effect on androgen profile • 3. Effect on serum adiponectin levels • 4. Insulin resistance • 5. Effect on Serum Paraoxonase 1 Activity • 6. Effect of gut microbiota • 7. Oxidative stress and inflammatory markers Thyroid Function Analysis

Compound: O=C(/C=C/c1ccc(O)cc1)CC(=O)/C=C/c1ccc(O)cc1 [BDMC, bisdemethoxycurcumin]
- Serum hormonal levels 17-β estradiol ([1]; 3.12 mg/kg): 16.89 ± 3.01 pg/mL
- Serum hormonal levels FSH ([1]; 3.12 mg/kg): 10.54 ± 1.44 mIU/mL
- Serum hormonal levels LH ([1]; 3.12 mg/kg): 26.33 ± 3.02 mIU/mL
- Serum hormonal levels Progesterone ([1]; 3.12 mg/kg): 18.67 ± 1.03 ng/mL
- Serum hormonal levels 17-β estradiol ([1]; 6.25 mg/kg): 18.22 ± 2.44 pg/mL
- Serum hormonal levels FSH ([1]; 6.25 mg/kg): 10.98 ± 1.52 mIU/mL
- Serum hormonal levels LH ([1]; 6.25 mg/kg): 27.32 ± 2.30 mIU/mL
- Serum hormonal levels Progesterone ([1]; 6.25 mg/kg): 20.56 ± 1.09 ng/mL
- Serum hormonal levels 17-β estradiol ([1]; 12.5 mg/kg): 18.89 ± 1.65 pg/mL
- Serum hormonal levels FSH ([1]; 12.5 mg/kg): 12.58 ± 1.08 mIU/mL
- Serum hormonal levels LH ([1]; 12.5 mg/kg): 24.36 ± 2.11 mIU/mL
- Serum hormonal levels Progesterone ([1]; 12.5 mg/kg): 23.50 ± 2.21 ng/mL
- Serum hormonal levels 17-β estradiol ([1]; 25 mg/kg): 22.50 ± 1.67 pg/mL
- Serum hormonal levels FSH ([1]; 25 mg/kg): 13.28 ± 1.34 mIU/mL
- Serum hormonal levels LH ([1]; 25 mg/kg): 21.54 ± 1.26 mIU/mL
- Serum hormonal levels Progesterone ([1]; 25 mg/kg): 26.95 ± 1.53 ng/mL
- Serum hormonal levels 17-β estradiol ([1]; 50 mg/kg): 21.26 ± 2.32 pg/mL
- Serum hormonal levels FSH ([1]; 50 mg/kg): 13.07 ± 1.36 mIU/mL
- Serum hormonal levels LH ([1]; 50 mg/kg): 22.78 ± 1.76 mIU/mL
- Serum hormonal levels Progesterone ([1]; 50 mg/kg): 26.28 ± 1.22 ng/mL
- Average body weight ([2]; 3.12 mg/kg from day 22, Day 28 (PCOS + Treatment)): 202 ± 4.15 g
- Average body weight ([2]; 3.12 mg/kg from day 22, Day 36 (PCOS + Treatment)): 200 ± 6.36 g
- Average body weight ([2]; 3.12 mg/kg group, Day 1 (PCOS induction, before treatment)): 158 ± 6.16 g
- Average body weight ([2]; 3.12 mg/kg group, Day 7 (PCOS induction, before treatment)): 175 ± 5.27 g
- Average body weight ([2]; 3.12 mg/kg group, Day 14 (PCOS induction, before treatment)): 194 ± 5.77 g
- Average body weight ([2]; 3.12 mg/kg group, Day 21 (PCOS induction, before treatment)): 210 ± 7.58 g
- Average body weight ([2]; 6.25 mg/kg from day 22, Day 28 (PCOS + Treatment)): 201 ± 6.88 g
- Average body weight ([2]; 6.25 mg/kg from day 22, Day 36 (PCOS + Treatment)): 198 ± 6.45 g
- Average body weight ([2]; 6.25 mg/kg group, Day 1 (PCOS induction, before treatment)): 157 ± 8.15 g
- Average body weight ([2]; 6.25 mg/kg group, Day 7 (PCOS induction, before treatment)): 175.3 ± 4.5 g
- Average body weight ([2]; 6.25 mg/kg group, Day 14 (PCOS induction, before treatment)): 195.5 ± 6.6 g
- Average body weight ([2]; 6.25 mg/kg group, Day 21 (PCOS induction, before treatment)): 215 ± 5.78 g
- Average body weight ([2]; 12.5 mg/kg from day 22, Day 28 (PCOS + Treatment)): 200 ± 6.57 g
- Average body weight ([2]; 12.5 mg/kg from day 22, Day 36 (PCOS + Treatment)): 196 ± 5.26 g
- Average body weight ([2]; 12.5 mg/kg group, Day 1 (PCOS induction, before treatment)): 158 ± 7.88 g
- Average body weight ([2]; 12.5 mg/kg group, Day 7 (PCOS induction, before treatment)): 174 ± 2.83 g
- Average body weight ([2]; 12.5 mg/kg group, Day 14 (PCOS induction, before treatment)): 202.5 ± 8.12^ g
- Average body weight ([2]; 12.5 mg/kg group, Day 21 (PCOS induction, before treatment)): 212 ± 6.36 g
- Average body weight ([2]; 25 mg/kg from day 22, Day 28 (PCOS + Treatment)): 201 ± 5.54 g
- Average body weight ([2]; 25 mg/kg from day 22, Day 36 (PCOS + Treatment)): 191 ± 5.84 g
- Average body weight ([2]; 25 mg/kg group, Day 1 (PCOS induction, before treatment)): 157.5 ± 8.16^ g
- Average body weight ([2]; 25 mg/kg group, Day 7 (PCOS induction, before treatment)): 172 ± 6.46 g
- Average body weight ([2]; 25 mg/kg group, Day 14 (PCOS induction, before treatment)): 190.5 ± 4.44^ g
- Average body weight ([2]; 25 mg/kg group, Day 21 (PCOS induction, before treatment)): 210 ± 5.12 g
- Average body weight ([2]; 50 mg/kg from day 22, Day 28 (PCOS + Treatment)): 199 ± 8.15 g
- Average body weight ([2]; 50 mg/kg from day 22, Day 36 (PCOS + Treatment)): 192 ± 6.36 g
- Average body weight ([2]; 50 mg/kg group, Day 1 (PCOS induction, before treatment)): 157 ± 6.13 g
- Average body weight ([2]; 50 mg/kg group, Day 7 (PCOS induction, before treatment)): 168 ± 5.47 g
- Average body weight ([2]; 50 mg/kg group, Day 14 (PCOS induction, before treatment)): 190 ± 10.42 g
- Average body weight ([2]; 50 mg/kg group, Day 21 (PCOS induction, before treatment)): 211 ± 7.58 g
- Ovarian weight ([3]; 3.12 mg/kg): 63.88 ± 2.19 mg
- Ovarian weight ([3]; 6.25 mg/kg): 59.64 ± 2.32 mg
- Ovarian weight ([3]; 12.5 mg/kg): 54.36 ± 2.80 mg
- Ovarian weight ([3]; 25 mg/kg): 47.88 ± 2.76 mg
- Ovarian weight ([3]; 50 mg/kg): 48.54 ± 2.42 mg
- Serum hormonal levels T3 ([4]; 25 mg/kg p.o.): 3.3 ± 0.18 μIU/ml
- Serum hormonal levels T4 ([4]; 25 mg/kg p.o.): 11.78 ± 0.39 μIU/ml
- Serum hormonal levels TSH ([4]; 25 mg/kg p.o.): 5.28** nmol/L
- Serum hormonal levels T3 ([4]; 50 mg/kg p.o.): 3.05 ± 0.17 μIU/ml
- Serum hormonal levels T4 ([4]; 50 mg/kg p.o.): 10.45 ± 0.27 μIU/ml
- Serum hormonal levels TSH ([4]; 50 mg/kg p.o.): 7.12** nmol/L
